Test results reported in patent publication US20180016304A1, “SELF-ASSEMBLING ULTRASHORT ALIPHATIC DEPSIPEPTIDES FOR BIOMEDICAL APPLICATIONS” (Agency for Science, Technology and Research, priority 2015, published 2018).
Where two headings read alike, the source gives them in different places. Where a SMILES comes first, the peptide text is derived from it.

Legend:
[1] = Minimum gelation concentration / hydrogel formation; assay type: physicochemical
Procedure: In order to determine the minimum gelation concentration in water, the depsipeptide was dissolved in MilliQ water.
Liskamp reported depsipetides based on the amylin (20-29) structure.

[2] = tested on: human mesenchymal stem cells (hMSCs); experiment: Cytocompatibility, WST-1 cell metabolic activity assay; assay type: cell-based; conditions: for cytocompatibility / tolerance: fragments particularly if the acidity was neutralized
Procedure: Human mesenchymal stem cells, hMSCs, were obtained from Lonza (Basel, Switzerland) and cultured in MSC growth medium (MSCGM) with 5% fetal bovine serum, 2% L-glutamine and 0.1% penicillin-streptomycin (Lonza). The cell metabolic activity was measured with the Cell Proliferation Reagent WST-1 assay (Roche Diagnostics, Mannheim, Germany). Briefly, 5000 hMSC cells were seeded in each well and media containing the sample was added to the desired concentration (n=6). After incubation for 72 hours at 37° C., the media was aspirated and media containing 10% WST-1 reagent added for 2 hours. The absorbance at 450 nm was measured subtracting the absorbance at 600 nm. The absorbance readings were further normalized against cells cultured in media containing an equivalent volume of PBS (i.e. 100% cell survival) to determine the percentage cell viability. Cells cultured with an equivalent volume of ethanol were used as a negative control (i.e. 100% cell death).
In order to determine depsipeptide cytotoxicity and effect on cell proliferation, human mesenchymal stem cells (hMSCs) were incubated with various concentrations of the depsipeptide and their metabolic activity and viability was tested after 3 days. Cell viability decreased with increasing depsipeptide concentration. […] To address concerns that the cytotoxicity could be attributed to the degradation products following hydrolysis of the ester bond, the possible degradation products, the peptide Ac-ILV and depsipeptide HO-aGK-NH2, were also evaluated.

[3] = 2 mg/mL in PBS
Procedure: In order to test the degradation ability of the depsipeptide, 2 mg/mL was dissolved in PBS puffer at pH 5.7, 7.3 and 8.5. All samples were incubated at 37° C. and analysed by HPLC-MS.
In order to characterize the degradation products of the depsipeptide Ac-ILV-OH and HO-aGK-NH2 were synthesized and the retention time was determined by HPLC-MS.

[4] = MilliQ water, depsipeptide sample left at room temperature

**Q.** Which minimum gelation concentration [1, 4] does the source give for “Ac-IK6-NH2: parent ultrashort self-assembling peptide Ac-ILVAGK-NH2, without α-hydroxy acid [reference compound]” here?
**A.** The minimum gelation concentration was 10 mg/mL.

**Q.** With `CC[C@H](C)[C@H](NC(C)=O)C(=O)N[C@@H](CC(C)C)C(=O)N[C@H](C(=O)OC(C)C(=O)NCC(=O)N[C@@H](CCCCN)C(N)=O)C(C)C` (some centres unmarked) [Ac-ILVaGK-NH2, Acetylated isoleucine-leucine-valine-lactic acid-glycine-lysine] (HELM PEPTIDE1{[ac].I.L.V.[CC(O[*:1])C(=O)[*:2]].G.K.[am]}$$$$V2.0) as the molecule, how does the hydrogel formation ([1]; 100 mg/mL dissolved in 90% water, 10% 10xPBS added) read?
**A.** The hydrogel formation was “instantaneous hydrogel formation”.

**Q.** What about the minimum gelation concentration [1, 4] of the same molecule?
**A.** Its minimum gelation concentration is 100 mg/mL.

**Q.** And the “minimum gelation concentration relative to parent peptide Ac-IK6-NH2” value ([1]; in water as well as in 1xPBS buffer)?
**A.** Its value is “about 10 times”.

**Q.** And the minimum gelation concentration ([1]; with PBS buffer added (1x PBS))?
**A.** The minimum gelation concentration was 60 mg/mL.

**Q.** What about the “IC50 (cell viability)” value ([2]; 3 days (72 hours) incubation, WST-1) of the same molecule?
**A.** Its value is “approximately 15 mg/mL”.

**Q.** What about the “stability (degradation)” value ([3]; pH 5.7, 37° C., compared with pH 7.3 and 8.5) of the same molecule?
**A.** The value was “most”.

**Q.** What about the “stability (degradation)” value ([3]; pH 8.5, 37° C., compared with pH 5.7 and 7.3) of the same molecule?
**A.** Its value is “least stable”.

**Q.** For `CC(O)C(=O)NCC(=O)N[C@@H](CCCCN)C(N)=O` (some centres unmarked) [HO-aGK-NH2] (HELM PEPTIDE1{[CC(O)C(=O)[*:2]].G.K.[am]}$$$$V2.0), which “concentration at which significant cytotoxicity was demonstrated” value ([2]; 3 days, WST-1) is on record?
**A.** The value was > 10000 µg/mL.

**Q.** And the cytocompatibility / tolerance ([2]; 3 days)?
**A.** Its cytocompatibility / tolerance is “extremely well tolerated”.

**Q.** For `CC[C@H](C)[C@H](NC(C)=O)C(=O)N[C@@H](CC(C)C)C(=O)N[C@H](C(=O)O)C(C)C` [Ac-ILV] (Ac-Ile-Leu-Val-OH), which cytocompatibility / tolerance ([2]; 3 days) is on record?
**A.** The cytocompatibility / tolerance was “extremely well tolerated”.
